Test results taken from the supplement of paper PMC8671470.

Legend:
Details in all cases: 72 h
[1] = tested on: myeloid leukemia patient primary cells Pat.7; assay: cell viability (% survival relative to DMSO control); higher = less cytotoxic
How it was run: (§1)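 Thawed mononuclear cells from AML or CML patients were purified on Ficoll and cultured for 72 h in RPMI 1640 with 10% FBS, at 10,000 cells/well, on 384-well plates carrying 70 pre-printed compounds at 1–10,000 nM in five tenfold steps, in duplicate. Viability came from CellTiter-Glo, normalised against DMSO and against 10 μM proteasome inhibitor. Any area under the curve given was derived from log-logistic curve fits in the drc and PharmacoGx R packages, and these fits had four parameters.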

[2] = tested on: myeloid leukemia patient primary cells Pat.5; assay: as above
How it was run: as §1

[3] = tested on: myeloid leukemia patient primary cells Pat.6; assay: as above
How it was run: as §1

[4] = tested on: myeloid leukemia patient primary cells Pat.2; assay: as above
How it was run: as §1

[5] = tested on: myeloid leukemia patient primary cells Pat.8; assay: as above
How it was run: as §1

[6] = tested on: myeloid leukemia patient primary cells Pat.14; assay: as above
How it was run: as §1

[7] = tested on: myeloid leukemia patient primary cells Pat.12; assay: as above
How it was run: as §1

[8] = tested on: myeloid leukemia patient primary cells Pat.7; assay: area under dose-response curve (viability, 1 nM-10 uM) (fraction (0-1)); higher = more sensitive
Description: (§2)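 AUC (0–1, higher = more sensitive) of the 5-point dose–response (1 nM–10 µM, 72 h, CellTiter-Glo) in primary AML/CML patient mononuclear cells. 0.030103 is the floor for inactive compounds.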

[9] = tested on: myeloid leukemia patient primary cells Pat.5; assay: as above
Description: as §2

[10] = tested on: myeloid leukemia patient primary cells Pat.3; assay: as above
Description: as §2

[11] = tested on: myeloid leukemia patient primary cells Pat.4; assay: as above
Description: as §2

[12] = tested on: myeloid leukemia patient primary cells Pat.15; assay: as above
Description: as §2

[13] = tested on: myeloid leukemia patient primary cells Pat.6; assay: as above
Description: as §2

[14] = tested on: myeloid leukemia patient primary cells Pat.9; assay: as above
Description: as §2

[15] = tested on: myeloid leukemia patient primary cells Pat.2; assay: as above
Description: as §2

[16] = tested on: myeloid leukemia patient primary cells Pat.10; assay: as above
Description: as §2

[17] = tested on: myeloid leukemia patient primary cells Pat.14; assay: as above
Description: as §2

[18] = tested on: myeloid leukemia patient primary cells Pat.12; assay: as above
Description: as §2

[19] = tested on: myeloid leukemia patient primary cells Pat.13; assay: as above
Description: as §2

ML-2 = tested on: ML-2
How it was run: (§3)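 Fifteen myeloid leukaemia cell lines were seeded in RPMI 1640 at densities titrated to the linear growth range and placed in 384-well plates with acoustically pre-printed compounds at five tenfold doses from 1 to 10,000 nM, in duplicate. After 72 h at 37 °C with 5% CO2, luminescent ATP viability was normalised to vehicle and to a positive control at 10 µM, and curves were fitted with a four-parameter log-logistic model. The IC50 was obtained from these fits.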

THP-1 = tested on: THP-1
How it was run: as §3

LAMA-84 = tested on: LAMA-84
How it was run: as §3

HL-60 = tested on: HL-60
How it was run: as §3

BV-173 = tested on: BV-173
How it was run: as §3

KG-1 = tested on: KG-1
How it was run: as §3

SHI-1 = tested on: SHI-1
How it was run: as §3

HEL = tested on: HEL
How it was run: as §3

NOMO-1 = tested on: NOMO-1
How it was run: as §3

KU-812 = tested on: KU-812
How it was run: as §3

MOLM-13 = tested on: MOLM-13
How it was run: as §3

K-562 = tested on: K-562
How it was run: as §3

Mono-Mac-6 = tested on: Mono-Mac-6
How it was run: as §3

MV4-11 = tested on: MV4-11
How it was run: as §3

[20] = tested on: myeloid leukemia patient primary cells Pat.11; assay: area under dose-response curve (viability, 1 nM-10 uM) (fraction (0-1)); higher = more sensitive
Description: as §2

[21] = tested on: myeloid leukemia patient primary cells Pat.8; assay: as above
Description: as §2

[22] = tested on: myeloid leukemia patient primary cells Pat.1; assay: as above
Description: as §2

O=C1c2cc([N+](=O)[O-])ccc2-n2c1nc1ccccc1c2=O [GNF-Pf-3777]
cell viability [%]
Details | [1] | [2] | [3] | [4] | [5] | [6] | [7]
1 nM | 95.9 | > 100 | > 100 | 98.3 | 97.5 | 96.8 | 98
10 nM | 70.7 | 63 | 98.8 | 93.2 | 94.9 | 95 | 96.3
100 nM | > 100 | 73 | 98.6 | 95.5 | 88.4 | 96.8 | 99.1
1000 nM | 97.1 | 36.1 | 94.3 | 93.7 | 84 | 85.7 | 99.3
10000 nM | 21.8 | 3.37 | 66.8 | 62.3 | 64.9 | 54.2 | 78.6

Details | IC50 (cell viability) [µM] | area under dose-response curve
BV-173 | 1.64 | –
HEL | 0.934 | –
HL-60 | 1.28 | –
K-562 | 1.11 | –
KG-1 | 1.29 | –
KU-812 | 1.31 | –
LAMA-84 | 1.83 | –
ML-2 | 6.05 | –
MOLM-13 | 1.58 | –
MV4-11 | 1.5 | –
Mono-Mac-6 | 1.78 | –
NOMO-1 | 5.99 | –
SHI-1 | 1.93 | –
THP-1 | 1.22 | –
[8] | – | 0.0749
[9] | – | 0.292
[10] | – | 0.265
[11] | – | 0.14
[12] | – | 0.0672
[13] | – | 0.0546
[14] | – | 0.158
[15] | – | 0.0426
[16] | – | 0.27
[17] | – | 0.071
[18] | – | < 0.0301
[19] | – | 0.115

Oc1ccc(Nc2nc(-c3ccc(Cl)cc3)cs2)cc1 [SKI II]
cell viability [%]
Details | [1] | [2] | [3] | [4] | [5] | [6] | [7]
1 nM | 79.7 | 34.3 | 75.2 | 95.5 | 82.4 | 58.3 | 89.9
10 nM | > 100 | 41.7 | 98.7 | 95.9 | 80.7 | 97.8 | 92.9
100 nM | 62.7 | 45.5 | 95.4 | 95.1 | 84.5 | 69.4 | 95.8
1000 nM | 11.5 | 25 | 93.1 | 94.2 | 80 | 29.1 | > 100
10000 nM | < 0 | 17 | 16.2 | 53.1 | 42.6 | 6.09 | 53.9

Details | IC50 (cell viability) [µM] | area under dose-response curve
BV-173 | 1.54 | –
HEL | 3.22 | –
HL-60 | 2.26 | –
K-562 | 2.51 | –
KG-1 | 3.93 | –
KU-812 | 2.9 | –
LAMA-84 | 6.79 | –
ML-2 | 5.58 | –
MOLM-13 | 8.97 | –
MV4-11 | 3.2 | –
Mono-Mac-6 | 4.12 | –
NOMO-1 | > 10 | –
SHI-1 | > 10 | –
THP-1 | 2.48 | –
[8] | – | 0.424
[10] | – | 0.238
[11] | – | 0.0605
[12] | – | 0.0495
[13] | – | 0.0895
[14] | – | 0.341
[15] | – | 0.0376
[16] | – | 0.291
[17] | – | 0.304
[18] | – | 0.0339
[19] | – | 0.0533
[20] | – | < 0.0301
[21] | – | 0.054
[22] | – | 0.054
